Measurements from paper PMC10005056, “Design and Synthesis of New Acyl Urea Analogs as Potential σ1R Ligands” (Molecules, 2023).

Legend:
σ1R = σ1R (Homo sapiens, UniProt Q99720); assay: In vitro σ1R binding assay (radioligand displacement, NIMH PDSP); conditions: read-out: In Vitro σ1R Affinity (Ki)
Description: Online Molinspiration and Osiris property explorer were used to calculate/predict drug-like molecular properties for the target compounds. These studies involved retrieving the σ1R crystal structure (5HK1) with embedded ligand (PD144418), preparation (e.g., H2O and ligand removal), and docking the target molecules via the PyRx and AutoDock Vina suite. […] Synthetically, a variety of approaches for obtaining acyl ureas were reviewed and the most feasible conditions were attempted with limited success—our goal was to obtain our compounds using the shortest and most cost-effective approach. […] We therefore slightly modified Stokes’ conditions by preparing the N-(phenoxycabonyl)benzamide intermediate from phenol and benzoyl isocynate. Coupling the intermediate with amines or amides or thioamides via simple nucleophilic displacement afforded our series of N-acyl ureas plus N-acyl thioureas (Table 1) in good yields (>64%). To confirm our pharmacological assumptions regarding these molecules behaving like PD144418, the compounds were sent to the National Institute of Mental Health’s Psychoactive Drug Screening Program and evaluated in radioligand displacement assays to determine their in vitro σ1R affinities or Ki values.
Computational (kcal/mol) versus in vitro (μM, from the National Institute of Mental Health Psychoactive Drug Screening Program or NIMH-PDSP [https://pdsp.unc.edu/pdspweb/ (accessed 28 February 2023)] σ1R binding affinity data are illustrated in Table 4.
Sigma-1 binding affinity experiments (Ki determinations) were conducted at the National Institute of Mental Health’s Psychoactive Drug Screening Program (NIMH PDSP). Sigma-1 receptor binding assay protocol details (radioligand displacement conditions, etc.) are available at https://pdsp.unc.edu/pdspweb/content/PDSP%20Protocols%20II%202013-03-28.pdf (accessed 28 February 2023).

Sequence of σ1R (Q99720 whole entry, species assumed): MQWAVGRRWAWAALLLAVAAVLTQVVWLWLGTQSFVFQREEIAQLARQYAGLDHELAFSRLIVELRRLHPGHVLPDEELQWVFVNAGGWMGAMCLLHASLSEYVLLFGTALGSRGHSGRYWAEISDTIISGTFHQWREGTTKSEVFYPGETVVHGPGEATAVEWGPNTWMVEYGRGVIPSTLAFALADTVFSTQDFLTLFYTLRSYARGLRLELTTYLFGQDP

SMILES | Ki (σ1R) | melting point
O=C(NC(=O)N1CCN(c2ccncc2)CC1)c1ccccc1 [Compound 6, N-Benzoyl-4-(pyridin-4-yl)piperazine-1-carboxamide] | > 10 µM | 161 to 163 °C
O=C(NC(=O)N1CCN(c2ncccn2)CC1)c1ccccc1 [Compound 5, N-Benzoyl-4-(pyrimidin-2-yl)piperazine-1-carboxamide] | > 10 µM | 145 to 147 °C
COc1cc(C(=S)NC(=O)NC(=O)c2ccccc2)ccc1O [Compound 12, N-((4-Hydroxy-3-methoxyphenylcarbonothioyl)carbamoyl) benzamide] | 9.54 µM | 176 to 177 °C
Cc1ccc(N2CCN(C(=O)NC(=O)c3ccccc3)CC2)cc1 [Compound 8, N-Benzoyl-4-(p-tolyl)piperazine-1-carboxamide] | > 10 µM | 158 to 160 °C
Cc1cc(C)nc(NC(=O)NC(=O)c2ccccc2)n1 [Compound 13, N-((4,6-Dimethylpyrimidin-2-yl)carbamoyl)benzamide] | > 10 µM | 183 to 185 °C
Cc1c(C)c2c(c(C)c1O)CCC(C)(C(=O)NC(=O)NC(=O)c1ccccc1)O2 (stereo not shown) [Compound 11, N-(Benzoylcarbamoyl)-6-hydroxy-2,5,7,8-tetramethylchromane-2-carboxamide] | > 10 µM | 155 to 157 °C
O=C(NC(=O)N1CCC(O)CC1)c1ccccc1 [Compound 7] | > 10 µM | 170 to 172 °C
Cc1cc2cc(NC(=O)NC(=O)c3ccccc3)ccc2[nH]1 [Compound 4, N-((2-Methyl-1H-indol-5-yl)carbamoyl)benzamide] | > 10 µM | 209 to 211 °C
CC(C)(C)OC(=O)N1CCC(NC(=O)NC(=O)c2ccccc2)CC1 [Compound 9, Tert-butyl 4-(3-benzoylureido)piperidine-1-carboxylate] | > 10 µM | 164 to 166 °C

Other lines, results leading:

Ki (σ1R) | melting point | SMILES
> 10 µM |  | Cc1cc(NC(=O)NC(=O)c2ccccc2)no1 [Compound 1, N-((5-Methylisoxazol-3-yl)carbamoyl)benzamide]
> 10 µM | 180 to 182 °C | O=C(NC(=O)c1ccccc1)NC(=S)c1ccccn1 [Compound 3, N-((Pyridine-2-carbonothioyl)carbamoyl)benzamide]
> 10 µM | 220 to 223 °C | O=C(NC(=O)c1ccccc1)Nc1ccc2[nH]ccc2c1 [Compound 2]
> 10 µM | 237 to 238 °C | O=C(NC(=O)c1ccccc1)Nc1cc2ccccc2cn1 [Compound 15, N-(Isoquinolin-3-ylcarbamoyl)benzamide]
> 10 µM | 162 to 165 °C | O=C(NC(=S)Nc1cc2ccccc2cn1)c1ccccc1 [Compound 16, N-(Isoquinolin-3-ylcarbamothioyl)benzamide]
2.18 µM | 180 to 182 °C | O=C(NC(=O)c1ccccc1)Nc1nc2ccccc2o1 [Compound 10, N-(Benzo[d]oxazol-2-ylcarbamoyl)benzamide]
> 10 µM | 233 to 236 °C | O=C(NC(=O)c1ccccc1)Nc1cnc2ccccc2c1 [Compound 14, N-(Quinolin-3-ylcarbamoyl)benzamide]
